# Measured values taken from patent US20110059947A1, “ALPHA 7 NICOTINIC AGONISTS AND ANTIPSYCHOTICS” (Targacept, Inc., priority 2008, published 2011).
# Where “and” joins values, the source holds several entries; their conditions need not be identical. Equal values may be shown once.
# How the values were obtained:
# human α4β2 receptors = biological target: T1, human α4β2 receptors (Homo sapiens, UniProt P17787+P43681); test: [3H]-(S)-nicotine competition binding in SH-EP1 cellular membranes; settings: SH-EP1 cells
# T1 construct: expressed in transfected cells; host or cells: SH-EP1
# human α4β2 sub-type = biological target: T2, human α4β2 sub-type (Homo sapiens, UniProt P17787+P43681); test: Functional activation in Xenopus oocytes (electrophysiology); assay type: cell-based
# T2 construct: expressed in transfected cells; host or cells: Xenopus oocytes
# human muscle receptors = biological target: T3, human muscle receptors (Homo sapiens, UniProt P02708+P07510+Q07001); test: Muscle function (Ca++ flux), TE-671 cells; assay type: cell-based; settings: human TE-671 cells, % of nicotine's Emax
# T3 construct: expressed in appropriate rat and human cell lines; endogenous in cells
# rat ganglion receptors = test: Ganglion function (Ca++ flux), PC-12 Shooter cells; assay type: cell-based; settings: rat PC-12 Shooter cells, % of nicotine's Emax
# human ganglion receptors = test: Ganglion function (Ca++ flux), SH-SY5Y cells; assay type: cell-based; settings: % of nicotine's Emax
# [1] = test system: non-nicotinic receptor classes; test: Broad receptor selectivity battery (Novascreen); settings: criterion: inhibition of receptor-selective ligand binding >50% at 10 μM
# sigma site 2 = biological target: T4, sigma site 2 (Homo sapiens, UniProt Q5BJF2); test: Sigma site 2 binding (Novascreen)
# T4 construct: Novascreen
# 5HT3 receptors [2] = biological target: T5, 5HT3 receptors (Mus musculus, UniProt P23979); test: 5HT3 receptor radioligand binding, mouse receptor; settings: 10 μM
# T5 sequence (P23979 24-489): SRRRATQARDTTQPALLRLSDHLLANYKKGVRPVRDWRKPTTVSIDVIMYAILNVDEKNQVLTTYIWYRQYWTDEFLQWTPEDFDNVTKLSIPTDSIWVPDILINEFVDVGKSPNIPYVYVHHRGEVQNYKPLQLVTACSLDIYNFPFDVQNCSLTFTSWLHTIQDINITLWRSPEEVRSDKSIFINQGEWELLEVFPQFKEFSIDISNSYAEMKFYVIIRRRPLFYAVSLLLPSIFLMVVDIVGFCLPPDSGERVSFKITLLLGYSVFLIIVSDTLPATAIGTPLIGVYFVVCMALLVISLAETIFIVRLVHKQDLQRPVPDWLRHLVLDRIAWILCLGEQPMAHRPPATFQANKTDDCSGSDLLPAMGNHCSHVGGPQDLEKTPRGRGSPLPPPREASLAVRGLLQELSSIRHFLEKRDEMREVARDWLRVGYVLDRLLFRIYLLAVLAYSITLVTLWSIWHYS
# 5HT3 receptors [3] = biological target: T6, 5HT3 receptors (Homo sapiens, UniProt P46098); test: 5HT3 receptor radioligand binding, human receptor; settings: 10 μM
# T6 sequence (P46098 24-478): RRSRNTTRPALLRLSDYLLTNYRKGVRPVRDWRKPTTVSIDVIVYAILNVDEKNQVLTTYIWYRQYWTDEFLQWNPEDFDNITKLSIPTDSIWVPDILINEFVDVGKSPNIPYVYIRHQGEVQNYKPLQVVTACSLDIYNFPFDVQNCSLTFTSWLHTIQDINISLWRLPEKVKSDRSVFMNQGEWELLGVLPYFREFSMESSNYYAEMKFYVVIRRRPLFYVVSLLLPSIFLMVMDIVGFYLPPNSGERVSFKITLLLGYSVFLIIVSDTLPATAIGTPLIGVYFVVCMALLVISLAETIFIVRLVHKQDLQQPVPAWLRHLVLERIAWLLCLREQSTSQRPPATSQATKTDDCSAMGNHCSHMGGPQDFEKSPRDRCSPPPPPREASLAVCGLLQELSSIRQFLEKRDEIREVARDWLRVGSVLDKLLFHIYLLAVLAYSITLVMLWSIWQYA
# 5HT3 receptors [4] = biological target: T6, 5HT3 receptors; test: Functional activation at the human 5HT3 receptor; assay type: cell-based; settings: read-out: maximal response, functional activation of human 5HT3 receptor
# th(tk-)/th(tk-) mice = test: Prepulse inhibition (PPI) and acoustic startle in th(tk-)/th(tk-) and control mice; assay type: in vivo
# Sprague-Dawley rats = test: Apomorphine-induced impairment of pre-pulse inhibition; assay type: in vivo, rat; settings: Compound A 0.3 mg/kg s.c., apomorphine 1.0 mg/kg s.c., p<0.001
# rats = test: Novel object recognition (NOR) in rats; assay type: in vivo, rat
# Text: The object recognition model is based on a rodent's spontaneous tendency to explore novel aspects of their environment and this exploratory activity can be an index for memory function (Ennaceur and Delacour, 1988). The NOR test measures the capacity to recognize an object presented on two occasions, some time apart. The test arena consisted of a 17.5×17.5″ clear Plexiglas™ with walls 12″ in height. The arena was enclosed in an opaque, sound-attenuating chamber and the doors (opening to the front side) remained open. […] On the first two days of this sub-acute dosing paradigm, administrations were followed 30 minutes later by an exploratory (habituation) trial (6 minutes) on Day 1 (no objects) and object recognition acquisition trial (3 minutes) on Day 2 (2 of the same objects). On the third day the final OR trial, or recall trial (3 minutes; one familiar, one novel object) was started at either 30 min, 2 h, 6 h, 18 h or 24 h after compound administration. For the recall trial, a video camera was positioned approximately 36″ from the unshielded side of the arena for videotaping of the animals' behaviors. These behaviors were subsequently hand-scored by a blinded observer assessing the time spent exploring a novel (object B) versus a familiar (object A) object during this recall exposure trial. Absolute exploration time for each object was recorded, and a % recognition index was calculated as follows: % RI=[(time investigating novel object)/(total time investigating both novel+familiar objects)] […] Where significant overall effects were found, post-hoc analyses were performed. P<0.05 was considered significant.
# opioid receptor = settings: read-out: Ki opioid site; dose-response assessment
compound,measurement,setting,value
"O=C(N[C@@H]1C2CCN(CC2)[C@H]1Cc1cccnc1)c1cc2ccccc2o1 [Compound A, (2S,3R)—N-(2-((3-pyridinyl)methyl)-1-azabicyclo[2.2.2]oct-3-yl)benzofuran-2-carboxamide]",Ki,human α4β2 receptors,2.8 µM
same,activation of human α4β2,human α4β2 sub-type,no detectable activation
same,decreases in subsequent control responses to ACh (α4β2),human α4β2 sub-type,no significant decreases
same,Muscle Function (Ca++ flux) % nicotine @ 10 uM,human muscle receptors; 10 uM,5 % nicotine and 5 ± 2 % nicotine
same,Muscle Function (Ca++ flux) % nicotine @ 100 uM,human muscle receptors; 100 uM,12 % nicotine and 12 ± 7 % nicotine
same,Ganglion Function (Ca++ flux) % nicotine @ 10 uM,rat ganglion receptors; 10 uM,11 % nicotine and 11 ± 6 % nicotine
same,Ganglion Function (Ca++ flux) % nicotine @ 100 uM,rat ganglion receptors; 100 uM,20 % nicotine and 20 ± 8 % nicotine
same,Ganglion Function (Ca++ flux) % nicotine @ 10 uM,human ganglion receptors; 10 uM,6 % nicotine and 6 ± 2 % nicotine
same,Ganglion Function (Ca++ flux) % nicotine @ 100 uM,human ganglion receptors; 100 uM,11 % nicotine and 11 ± 1 % nicotine
same,interactions with other non-nicotinic receptor classes,[1],minimal interactions
same,"inhibition of ligand binding, sigma site 2",sigma site 2; 10 μM,79 % inhibition
same,Ki,sigma site 2; dose-response assessment,13 µM
same,"inhibition of radioligand binding at 5HT3, mouse receptor",5HT3 receptors [2],59 % inhibition
same,"inhibition of radioligand binding at 5HT3, human receptor",5HT3 receptors [3],25 % inhibition
same,Emax at 100 µM,5HT3 receptors [4],15%
same,PPI or startle,th(tk-)/th(tk-) mice; Compound A 0.1 mg/kg given individually,little effect
same,PPI,"th(tk-)/th(tk-) mice; control (wild type) mice, Compound A",no effect on control
same,startle response,"th(tk-)/th(tk-) mice; th(tk-)/th(tk-) mice, Compound A",normalizes startle response
same,deficits in PPI,"th(tk-)/th(tk-) mice; th(tk-)/th(tk-) mice, Compound A (0.1 and 0.3 mg/kg analyzed)",reverse deficits in PPI
same,"PPI, main effect","th(tk-)/th(tk-) mice; transgenic th(tk-)/th(tk-) mice, Compound A 0.1 mg/kg alone",no significant main effect
same,PPI deficits induced by apomorphine,Sprague-Dawley rats,significantly reversed PPI deficits
same,time investigating novel versus familiar object,"rats; rats, 0.3 mg/kg, 30 min, 2 h, 6 h and 18 h after final sub-acute (q.d. x3 days) administration",significantly more time investigating the novel object than the familiar object
same,time spent investigating the novel object,"rats; rats, 0.3, 1 and 10 mg/kg p.o., 30 minutes after 3rd q.d. administration",significantly increased the time spent investigating the novel object
same,duration of working memory facilitation after third sub-acute daily administration,"rats; young rats, 0.3 mg/kg",up to 18 hours
same,Ki,opioid receptor,13 µM
